Entries after “also recorded” stand apart in the source; their conditions may differ.

The test deals with human influenza A virus X-113 reassortant vaccine strain (hemagglutinin and neuraminidase of A/Texas/36/91, H1N1). The class given is binding.
Turning to sulfatide, the “Binding of human influenza virus HRP conjugate to glycolipid on TLC plate” value (shortened to “Binding”) is given as “probably unspecific interaction”.

For “NeuAcα6Galβ4GlcNAcβ3Galβ4GlcβCer [S-6-PG]”, the “Binding” value was “did not show binding; also recorded: no binding at all”.

Turning to “NeuAcα3Galβ4GlcNAcβ3Galβ4(Fucα3)GlcNAcβ- [VIM-2]”, the “Binding” value is listed as “excluded; also recorded: no binding”.

Turning to NeuAcα3Galβ4(Fucα3)GlcNAcβ-, the “Binding” value was “excluded; also recorded: no binding”.

As to NeuAcα3Galβ4GlcβCer [GM3], the “Binding” value is on record as “did not see binding”.

With “NeuAcα6Galβ4GlcNAcβ3Galβ4GlcNAcβ3Galβ4GlcβCer [7-sugar NeuAc-6-neolacto ganglioside]”, the “Binding” value is “did not show binding; also recorded: no binding at all”.

For the origin of these results see patent publication US7902170B2, “Influenza virus binding, sialylated oligosaccharide substance and use thereof” (priority 2000, dated 2011).
